Biological target: T1, Sodium/myo-inositol cotransporter 2 (Homo sapiens, UniProt Q8WWX8)
T1 sequence (Q8WWX8 whole entry): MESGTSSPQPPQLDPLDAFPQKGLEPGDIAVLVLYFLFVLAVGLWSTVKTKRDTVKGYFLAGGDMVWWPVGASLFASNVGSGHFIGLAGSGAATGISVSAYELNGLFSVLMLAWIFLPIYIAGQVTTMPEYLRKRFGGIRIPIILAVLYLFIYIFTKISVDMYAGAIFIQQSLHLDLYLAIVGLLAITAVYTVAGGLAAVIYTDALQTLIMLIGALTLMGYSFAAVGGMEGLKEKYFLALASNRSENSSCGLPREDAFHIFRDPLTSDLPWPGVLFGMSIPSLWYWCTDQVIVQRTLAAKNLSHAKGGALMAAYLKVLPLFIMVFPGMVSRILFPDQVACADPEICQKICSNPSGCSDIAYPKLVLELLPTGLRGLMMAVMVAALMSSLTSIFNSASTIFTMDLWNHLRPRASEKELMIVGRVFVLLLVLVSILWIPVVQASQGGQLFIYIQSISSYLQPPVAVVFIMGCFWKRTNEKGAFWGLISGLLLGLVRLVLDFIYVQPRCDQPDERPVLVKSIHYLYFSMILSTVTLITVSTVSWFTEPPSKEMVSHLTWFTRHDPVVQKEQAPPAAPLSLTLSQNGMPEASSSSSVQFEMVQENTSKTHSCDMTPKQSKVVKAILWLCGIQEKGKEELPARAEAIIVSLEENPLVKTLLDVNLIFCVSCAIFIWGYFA
Experiment: Substrate uptake by the Sodium/myo-inositol cotransporter 2 (SMIT2, SLC5A11) as assessed by the fluorescent FLIPR membrane potential dye in HEK-293 JumpIN-SLC5A11 cells (PubChem AID: 1794826)
Type: functional, cell-based, HEK293

With `O[C@H]1[C@@H](O)[C@@H](O)[C@@H](O)[C@@H](O)[C@@H]1O` the EC50 was 104 µM.

Reference: ChEMBL document CHEMBL5209568, “Membrane potential based assay for SLC5A11 using HEK-293 SLC5A11 OE cells” (2022)
